Experimental data as given in patent publication US20090044291A1, “DROUGHT-RESISTANT PLANTS AND METHOD FOR PRODUCING THE PLANTS” (D-Helix, priority 2006, published 2009).

Assays:
[1] = tested on: gl1 plants; experiment: Treatments with norflurazon and chloramphenicol; assay type: in vivo, Arabidopsis thaliana
Protocol: The reagent chloramphenicol (Sigma; CP) was diluted from 100 mg/ml stock solutions prepared in ethanol to 150 μg/ml, and equivalent volume of ethanol was included in the chloramphenicol-free-treated controls. For norflurazon (Sigma; Nf) treatment, Nf was diluted from 100 mM stock solutions prepared in DMSO to 3 μM, and equivalent volume of DMSO was included in the Nf-free-treated controls. The 3-week-old seedlings were treated with CP or Nf by irrigation of either 150 μg/ml CP or 3 μM Nf dissolved both in distilled water. Stomatal response to exogenous (±)-ABA was assayed at different time intervals after the application of the reagents, and the amounts of ABAR/CHLH protein were immuno-determined at the same time.
ABA contents in tissues were assayed by radioimmunoassay method as described previously (Zhang, D. P. et al., Plant physiol. 128:714-725 (2002)).

[2] = tested on: inducible RNAi transgenic plants (ABAR/CHLH expression); experiment: Induction of RNAi by 17beta-estradiol in inducible RNAi lines; assay type: in vivo, Arabidopsis thaliana; details: 10 μM 17beta-estradiol
Text: These constructs were introduced in Agrobacterium tumefaciens GV3101 strain and transformed into plants by floral infiltration. The homozygous T3 seeds of the transgenic plants were used for analysis. […] The seeds of the gun4-1, gun5-1 and cch mutants were a generous gift from Dr. J. Chory (The Salk Institute, La Jolla, Calif.). The seeds of the mutants hy1-1 (ABRC#: CS67), hy2-1 (CS68) and chl-2 (CS3362) were obtained from the Arabidopsis Biological Resource Center (ABRC). Except for the mutants hy1-1 and hy2-1 with the ecotype Ler as background, all the other mutants were isolated from the ecotype Columbia. Plants were grown in a growth chamber at 20-21° C. on Murashige-Skoog (MS) medium at about 80 μmol photons m^−2 s^−1, or in compost soil at about 120 μmol photons m^−2 s^−1 over a 16-h photoperiod.
For the treatment of seedlings of the inducible RNAi lines with 17beta-estradiol (Sigma) to induce down-regulation of ABAR/CHLH expression, 17beta-estradiol was diluted from 10 mM stock solution prepared in dimethyl sulfoxide (DMSO) to 10 μM, and equivalent volume of DMSO was included in the 17beta-estradiol-free-treated controls. […] The amounts of ABAR/CHLH protein were also determined at the same time by immunoblotting. […] The expression of ABAR/CHLH and some ABA-responsive genes was assessed by real-time PCR.

[3] = target: T1, Arabidopsis ABAR/CHLH (H subunit of Mg-chelatase) (Arabidopsis thaliana, UniProt Q9FNB0); experiment: ABA binding assay with purified yeast-expressed ABAR/CHLH; details: purified ABAR, 30 nM [3H]ABA, 1 to 1000-fold molar excess of competitor
T1 construct: 6xHis; made in house; host or cells: Pichia methanolica (Pichia Methanolica Expression kit, Invitrogen)
T1 sequence (Q9FNB0 50-1381): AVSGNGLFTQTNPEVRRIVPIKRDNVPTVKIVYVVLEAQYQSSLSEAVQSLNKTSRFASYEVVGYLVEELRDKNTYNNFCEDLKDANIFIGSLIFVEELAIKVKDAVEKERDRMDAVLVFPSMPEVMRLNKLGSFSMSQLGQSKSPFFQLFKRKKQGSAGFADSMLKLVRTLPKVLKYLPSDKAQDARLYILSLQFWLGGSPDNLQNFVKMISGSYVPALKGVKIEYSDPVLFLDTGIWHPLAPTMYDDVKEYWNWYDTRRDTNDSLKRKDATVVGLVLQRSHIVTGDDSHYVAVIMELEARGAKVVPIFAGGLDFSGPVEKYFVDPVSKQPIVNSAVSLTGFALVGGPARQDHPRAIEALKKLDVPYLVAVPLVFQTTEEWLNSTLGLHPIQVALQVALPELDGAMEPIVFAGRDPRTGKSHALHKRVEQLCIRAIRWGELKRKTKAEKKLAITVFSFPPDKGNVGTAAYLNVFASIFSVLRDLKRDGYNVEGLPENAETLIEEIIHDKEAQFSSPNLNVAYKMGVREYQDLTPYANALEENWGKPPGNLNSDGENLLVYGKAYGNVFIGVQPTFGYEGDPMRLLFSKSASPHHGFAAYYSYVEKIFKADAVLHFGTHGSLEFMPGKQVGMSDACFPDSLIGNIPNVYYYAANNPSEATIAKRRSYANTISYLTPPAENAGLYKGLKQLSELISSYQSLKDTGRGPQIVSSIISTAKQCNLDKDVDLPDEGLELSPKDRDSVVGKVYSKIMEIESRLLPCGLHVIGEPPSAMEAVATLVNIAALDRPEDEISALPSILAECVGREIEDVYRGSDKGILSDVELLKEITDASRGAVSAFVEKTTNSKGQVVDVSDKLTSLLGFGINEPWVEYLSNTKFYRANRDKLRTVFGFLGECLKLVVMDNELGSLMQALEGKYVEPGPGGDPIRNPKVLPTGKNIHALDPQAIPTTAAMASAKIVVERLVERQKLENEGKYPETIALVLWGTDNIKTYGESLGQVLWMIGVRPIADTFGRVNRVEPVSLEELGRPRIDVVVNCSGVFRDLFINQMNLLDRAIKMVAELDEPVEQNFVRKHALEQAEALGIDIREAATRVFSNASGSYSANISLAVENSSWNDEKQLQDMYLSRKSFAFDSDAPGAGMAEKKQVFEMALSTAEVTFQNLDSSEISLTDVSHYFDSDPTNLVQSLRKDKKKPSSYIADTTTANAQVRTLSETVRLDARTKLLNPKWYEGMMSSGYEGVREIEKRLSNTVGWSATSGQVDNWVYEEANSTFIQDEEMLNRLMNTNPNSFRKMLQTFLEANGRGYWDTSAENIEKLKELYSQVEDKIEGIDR
Protocol: Full-length ABAR/CHLH coding sequence was PCR-amplified with forward primer 5′-[…]-3′ (SEQ ID NO:30) and reverse primer 5′-[…]-3′ (SEQ ID NO:31). The recombinant ABAR/CHLH was expressed in yeast as a fusion protein with a 6×His (SEQ ID NO:32) tag by using Pichia Methanolica Expression kit (Invitrogen) and the fusion protein was affinity-purified according to manufacturer's instructions.
The ABA-binding activity of ABAR was assayed according to the previously described procedures (Zhang, D. P. et al., Plant physiol. 128:714-725 (2002)) with modifications. The binding medium (medium A) contained 50 mM Tris-HCl (pH 7.0), 2 mM MgCl2, 1 mM CaCl2, and 250 mM mannitol. The medium for extracting the Arabidopsis natural ABAR/CHLH protein (medium B) was the medium A supplemented with 2 mM 1,4-dithiothreitol (DTT), 1 mM phenylmethyl sulfonyl fluoride (PMSF), […] leupeptin, and […] pepstin A but minus 250 mM mannitol. [^3H](+)ABA (American Radiolabeled Chemicals, 2.37×10^12 Bq mmol^−1, purity 98.4%) at 30 nM, or at a step gradient of concentrations from 0 to 70 nM (when analyzing ABA binding kinetics, see FIG. 1a, d1), together with 2 μg purified yeast-expressed ABAR/CHLH protein or 50 μg proteins of the crude extracts from two-week-old Arabidopsis seedlings, was added into the medium A. The total volume for the binding assays was adjusted to 200 μl. The mixtures were incubated at 25° C. for 30 min, and then quickly placed on ice. Following the addition of 100 μl 0.5% (w/v) Dextran T70-coated charcoal (DCC) to remove the free [^3H]ABA by adsorption, the mixtures were maintained on ice for 5 min, and then centrifuged to remove DCC before the radioactivity in the supernatant was counted. The specific binding was determined by the difference between the radioactivity bound to the immuno-purified ABAR protein or crude extracts of Arabidopsis seedlings incubated only with [^3H]ABA (total binding) and radioactivity bound in the presence of 1,000-fold molar excess of unlabeled (+)-ABA (Sigma; non-specific binding. Non-specific binding in all the assays was lower than 10% of the total binding, see FIG. 1a, d1). The unlabeled ABA was added into the incubation medium at the same time with [^3H]ABA. The ABA-binding activity of the crude ABA-binding protein from Arabidopsis seedling was expressed as the number of nanomoles of [^3H]ABA specifically bound per gram of protein, and that of the immuno-purified ABAR protein as the number of moles of [^3H]ABA per mole of protein. The stereo-specificity of the ABA-binding was assayed as described previously (Zhang, D. P. et al., Plant physiol. 128:714-725 (2002)). […] The conditions of incubation were the same as described above (the incubation medium containing 30 nM [^3H]ABA), and the two ABA isomers and (+)-ABA were assayed in the concentrations ranging from 1 to 1000-fold molar excess of [^3H]ABA.

[4] = target: T2, natural ABAR/CHLH protein (Arabidopsis thaliana, UniProt Q9FNB0); experiment: Pull-down assay with anti-ABAR serum; assay type: binding; details: 30 nM [3H](+)ABA
T2 construct: 50 μg proteins of the crude extracts from two-week-old Arabidopsis seedlings; from tissue; host or cells: crude extracts of two-week-old Arabidopsis seedlings / leaves of gl1 (WT), RNAi line 12 and overexpressor line 1
T2 sequence (Q9FNB0 50-1381): T1 sequence (Q9FNB0 50-1381)
Protocol: The pull down assay was done as follows to detect ABA binding to the natural ABAR/CHLH protein. Total proteins were extracted from two-week-old Arabidopsis seedlings with the medium C composed of the medium B supplemented with 250 mM mannitol. The crude extracts (3 mg total proteins) was incubated by gently shaking in the medium C (400 μl) containing 30 nM [^3H](+)ABA at 4° C. for 2 h, and the anti-ABAR^N serum (10 μg, described below) was added into the medium for a further incubation at 4° C. for 2 h, and then the medium was supplemented by 100 μl 25% (v/v) protein A-agarose (Santa Cruz) for a final incubation at 4° C. for 2 h. Following the incubation, protein A-agarose was recovered by a brief centrifugation and washed with 1 ml medium C. The pellets were resuspended in […] water and mixed with scintillation fluid before the radioactivity (d.p.m., disintegrations per minute) of the bound [^3H](+)ABA was measured.
Three independent control experiments were performed for the pull down assays. A control was done by addition of the same amounts of mouse preimmune serum instead of the antiserum to the medium of the above-described pull down assay in the extracts from the leaves of wild-type plants. […]

`CNc1cnn(-c2cccc(C(F)(F)F)c2)c(=O)c1Cl` [norflurazon] was tested, and the ABA contents ([1]; Nf-treated plants, 3 μM by irrigation) was “remained unchanged”.
For `C[C@]12CC[C@@H]3c4ccc(O)cc4CC[C@H]3[C@@H]1CC[C@@H]2O` [17beta-estradiol], the “ABAR transcript and product / ABAR levels” value [2] was “significant decline” and the “ABAR transcript and product / ABAR levels” value ([2]; listed as 17beta-oestradiol) was “decrease”.
In the case of `O=C(N[C@H](CO)[C@H](O)c1ccc([N+](=O)[O-])cc1)C(Cl)Cl` [chloramphenicol], the ABA contents ([1]; CP-treated plants, 150 μg/ml by irrigation) was “remained unchanged”, the ABAR levels ([1]; after CP treatment (FIG. 9)) was “decrease” and the “stomatal movement response to ABA” value ([1]; after CP treatment (FIG. 9), 10 μM (±)-ABA) was “ABA-insensitive”.
In the case of `CC1=CC(=O)CC(C)(C)C1(O)/C=C/C(C)=C\C(=O)O` (single isomer, unassigned; (-)) [(−)-ABA], the “displacement of [3H](+)-ABA binding” value [3] was “not”.
(+)-ABA was tested, and the “displacement of [3H](+)-ABA binding” value [3] was “efficient displacement” and the “displacement of [3H]ABA / stereospecificity of pulled-down ABA-binding activity” value [4] was “highly stereospecific”.
With `CC(C=CC1(O)C(C)=CC(=O)CC1(C)C)=CC(=O)O` (stereo not drawn) [trans-ABA] the “displacement of [3H](+)-ABA binding” value [3] was “not”.
